Where a name gives a salt, the structure may show the parent alone.
Experiments:
[1] = target: T1, recombinant human α1D receptor (Homo sapiens, UniProt P25100); assay: Adrenergic α1D selectivity assay, [3H]-prazosin binding to membranes; conditions: inhibition of [3H]-prazosin binding, HEK cell membranes, read-out: α1 bind pIC50 (converted)
T1 construct: expressed in transfected cells; host or cells: human embryonic kidney 293 cells (HEK93 [sic]), membranes
T1 sequence (P25100 1-572): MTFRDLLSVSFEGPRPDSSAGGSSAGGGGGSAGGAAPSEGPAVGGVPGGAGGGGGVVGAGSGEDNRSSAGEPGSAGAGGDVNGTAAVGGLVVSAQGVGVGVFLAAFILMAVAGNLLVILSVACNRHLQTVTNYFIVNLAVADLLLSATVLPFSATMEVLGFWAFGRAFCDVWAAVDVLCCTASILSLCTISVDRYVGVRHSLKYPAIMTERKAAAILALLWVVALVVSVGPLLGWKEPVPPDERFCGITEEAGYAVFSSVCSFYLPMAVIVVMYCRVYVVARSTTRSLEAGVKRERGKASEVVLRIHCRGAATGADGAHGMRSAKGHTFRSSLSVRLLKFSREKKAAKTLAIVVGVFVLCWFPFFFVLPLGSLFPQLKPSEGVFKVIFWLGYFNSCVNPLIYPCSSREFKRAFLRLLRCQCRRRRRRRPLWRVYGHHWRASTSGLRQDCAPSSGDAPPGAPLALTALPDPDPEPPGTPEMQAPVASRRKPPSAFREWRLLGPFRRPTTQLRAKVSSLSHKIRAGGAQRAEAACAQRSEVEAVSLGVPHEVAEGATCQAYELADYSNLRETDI
Procedure: Membranes were prepared from human embryonic kidney 293 ([…]) cells expressing recombinant human α1D receptor. These were diluted in Assay Buffer (50 mM HEPES, 1 mM EDTA, pH 7.4) to provide a final concentration of membranes that gave a clear window between maximum and minimum specific binding.
Assays were performed in U-bottomed 96-well polypropylene plates. 10 μL [^3H]-prazosin (0.3 nM final concentration) and […] of test compound (10× final concentration) were added to each test well. For each assay plate 8 replicates were obtained for [^3H]-prazosin binding in the presence of 10 μL vehicle (10% (v/v) DMSO in Assay Buffer; defining maximum binding) or 10 μL BMY7378 (10 μM final concentration; defining non-specific binding (NSB)). Membranes were then added to achieve a final volume of 100 μL. The plates were incubated for 2 hours at room temperature and then filtered onto PEI coated GF/B filter plates, pre-soaked for 1 hour in Assay Buffer, using a 96-well plate Tomtec cell harvester. Five washes with 250 μL wash buffer (50 mM HEPES, 1 mM EDTA, pH 7.4) were performed at 4° C. to remove unbound radioactivity. The plates were dried then sealed from underneath using Packard plate sealers and MicroScint-O (50 μL) was added to each well. The plates were sealed (TopSeal A) and filter-bound radioactivity was measured with a scintillation counter (TopCount, Packard BioScience) using a 3-minute counting protocol.
(§1) Total specific binding (B0) was determined by subtracting the mean NSB from the mean maximum binding. NSB values were also subtracted from values from all other wells. […] Data was fitted to a four parameter logistic equation to determine the compound potency, which was expressed as pIC50 (negative log molar concentration inducing 50% inhibition of [^3H]-prazosin binding).

[2] = target: T2, Adrenergic β2 (Homo sapiens, UniProt P07550); assay: Adrenergic β2 mediated cAMP production in H292 cells (AlphaScreen cAMP detection); type: cell-based; set-up: key to β2 Int Act: fraction of formoterol maximum activity (formoterol = 1); conditions: for β2 Int Act: Intrinsic Activity as a fraction relative to the maximum activity determined for formoterol; for EC50: cAMP production, 60 minutes at room temperature, 300 μM rolipram, read-out: β2 pEC50 (converted)
T2 construct: Adherent H292 cells were removed from tissue culture flasks; endogenous in cells; host or cells: H292 cells
Procedure: Adrenergic β2 Mediated cAMP Production
H292 cells were grown in 225 cm2 flasks incubator at 37° C., 5% CO2 in RPMI medium containing, 10% (v/v) FBS (foetal bovine serum) and 2 mM L-glutamine.
Adherent H292 cells were removed from tissue culture flasks by treatment with Accutase™ cell detachment solution for 15 minutes. Flasks were incubated for 15 minutes in a humidified incubator at 37° C., 5% CO2. Detached cells were re-suspended in RPMI media (containing 10% (v/v) FBS and 2 mM L-glutamine) at 1×10^6 cells per mL. 10000 cells in 100 μL were added to each well of a tissue-culture-treated 96-well plate and the cells incubated overnight in a humidified incubator at 37° C., 5% CO2. The culture media was removed and cells were washed twice with 100 μL assay buffer and replaced with 50 μL assay buffer (HBSS solution containing 10 mM HEPES pH7.4 and 5 mM glucose). Cells were rested at room temperature for 20 minutes after which time 25 μL of rolipram (1.2 mM made up in assay buffer containing 2.4% (v/v) dimethylsulphoxide) was added. Cells were incubated with rolipram for 10 minutes after which time test compounds were added and the cells were incubated for 60 minutes at room temperature. The final rolipram concentration in the assay was 300 μM and final vehicle concentration was 1.6% (v/v) dimethylsulphoxide. The reaction was stopped by removing supernatants, washing once with 100 μL assay buffer and replacing with 50 μL lysis buffer. The cell monolayer was frozen at −80° C. for 30 minutes (or overnight).
AlphaScreen™ cAMP Detection
The concentration of cAMP (cyclic adenosine monophosphate) in the cell lysate was determined using AlphaScreen™ methodology. The frozen cell plate was thawed for 20 minutes on a plate shaker then 10 μL of the cell lysate was transferred to a 96-well white plate. 40 μL of mixed AlphaScreen™ detection beads pre-incubated with biotinylated cAMP, was added to each well and the plate incubated at room temperature for 10 hours in the dark. The AlphaScreen™ signal was measured using an EnVision spectrophotometer (Perkin-Elmer Inc.) with the recommended manufacturer's settings. cAMP concentrations were determined by reference to a calibration curve determined in the same experiment using standard cAMP concentrations. Concentration response curves for agonists were constructed and data was fitted to a four parameter logistic equation to determine both the pEC50 and Intrinsic Activity. Intrinsic Activity was expressed as a fraction relative to the maximum activity determined for formoterol in each experiment.

[3] = target: T3, recombinant human Dopamine Subtype D2s receptors (Homo sapiens, UniProt P14416); assay: Dopamine D2 selectivity assay, [3H]-spiperone binding to membranes; conditions: inhibition of [3H]-spiperone binding, read-out: D2 bind pIC50 (converted)
T3 construct: purchased Perkin Elmer
Procedure: Membranes containing recombinant human Dopamine Subtype D2s receptors were obtained from Perkin Elmer. These were diluted in Assay Buffer (50 mM HEPES, 1 mM EDTA, 120 mM NaCl, 0.1% gelatin, pH 7.4) to provide a final concentration of membranes that gave a clear window between maximum and minimum specific binding.
Assays were performed in U-bottomed 96-well polypropylene plates. 30 μL [^3H]-spiperone (0.16 nM final concentration) and 30 μL of test compound (10× final concentration) were added to each test well. For each assay plate 8 replicates were obtained for [^3H]-spiperone binding in the presence of 30 μL vehicle (10% (v/v) DMSO in Assay Buffer; defining maximum binding) or 30 μL Haloperidol (10 μM final concentration; defining non-specific binding (NSB)). Membranes were then added to achieve a final volume of 300 μL. The plates were incubated for 2 hours at room temperature and then filtered onto PEI coated GF/B filter plates, pre-soaked for 1 hour in Assay Buffer, using a 96-well plate Tomtec cell harvester. Five washes with 250 μL wash buffer (50 mM HEPES, 1 mM EDTA, 120 mM NaCl, pH 7.4) were performed at 4° C. to remove unbound radioactivity. The plates were dried then sealed from underneath using Packard plate sealers and MicroScint-0 (50 μL) was added to each well. The plates were sealed (TopSeal A) and filter-bound radioactivity was measured with a scintillation counter (TopCount, Packard BioScience) using a 3-minute counting protocol.
as §1, with “[^3H]-spiperone” for “[^3H]-prazosin”

T3 sequence (P14416 1-414 isoform P14416-2): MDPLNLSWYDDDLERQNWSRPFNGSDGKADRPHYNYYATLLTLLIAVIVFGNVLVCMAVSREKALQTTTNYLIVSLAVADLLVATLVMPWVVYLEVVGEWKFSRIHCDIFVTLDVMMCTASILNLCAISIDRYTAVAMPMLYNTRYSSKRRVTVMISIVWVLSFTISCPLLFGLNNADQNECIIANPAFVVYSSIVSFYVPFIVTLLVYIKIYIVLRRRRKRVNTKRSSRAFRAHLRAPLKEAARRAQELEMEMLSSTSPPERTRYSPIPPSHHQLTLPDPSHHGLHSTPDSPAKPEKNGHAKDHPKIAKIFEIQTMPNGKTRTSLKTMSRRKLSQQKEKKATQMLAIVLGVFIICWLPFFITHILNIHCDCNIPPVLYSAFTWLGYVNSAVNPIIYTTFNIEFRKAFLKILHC
T2 sequence (P07550 whole entry): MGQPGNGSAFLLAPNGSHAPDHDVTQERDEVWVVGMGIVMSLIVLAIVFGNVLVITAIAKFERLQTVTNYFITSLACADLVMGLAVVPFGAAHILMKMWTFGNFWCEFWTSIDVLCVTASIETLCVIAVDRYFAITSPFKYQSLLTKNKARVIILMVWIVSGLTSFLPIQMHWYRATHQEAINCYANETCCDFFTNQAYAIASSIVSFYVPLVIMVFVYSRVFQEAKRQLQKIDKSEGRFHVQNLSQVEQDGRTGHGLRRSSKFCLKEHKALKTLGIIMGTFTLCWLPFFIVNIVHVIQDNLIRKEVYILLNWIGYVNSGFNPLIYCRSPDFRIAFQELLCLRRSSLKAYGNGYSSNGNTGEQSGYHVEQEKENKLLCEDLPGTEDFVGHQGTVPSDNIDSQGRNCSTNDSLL

| IC50 [1] | β2 Int Act [2] | EC50 [2] | IC50 [3] | Compound |
| --- | --- | --- | --- | --- |
| 126 nM | 0.76 | 10 nM | 316 nM | O=C(CCNCCc1ccccc1)N(CCNCCc1ccc(O)c2[nH]c(=O)ccc12)C1CCCCCC1 [Example 7, N-Cycloheptyl-N-(2-(2-(8-hydroxy-2-oxo-1,2-dihydroquinolin-5-yl)ethylamino)ethyl)-3-(phenethylamino)propanamide bis(trifluoroacetate)] |
| 501 nM | 0.92 | 5.01 nM | 3980 nM | Cl.O=C(CCOCCc1cccc(F)c1)N(CCNCCc1ccc(O)c2[nH]c(=O)ccc12)C1CCCCC1 [Example 72, N-Cyclohexyl-3-(3-fluorophenethoxy)-N-(2-(2-(8-hydroxy-2-oxo-1,2-dihydroquinolin-5-yl)ethylamino)ethyl)propanamide hydrochloride] |
| 50.1 nM | 0.65 | 31.6 nM | 251 nM | O=C(CCNCCc1ccc(F)cc1)N(CCNCCc1ccc(O)c2[nH]c(=O)ccc12)C1CCCCCC1 [Example 6, N-Cycloheptyl-3-(4-fluorophenethylamino)-N-(2-(2-(8-hydroxy-2-oxo-1,2-dihydroquinolin-5-yl)ethylamino)ethyl)propanamide bis(trifluoroacetate)] |
| 631 nM | 0.85 | 10 nM | 3980 nM | Cl.O=C(CCOCCc1ccc(F)cc1)N(CCNCCc1ccc(O)c2[nH]c(=O)ccc12)C1CCCCC1 [Example 71, N-Cyclohexyl-3-(4-fluorophenethoxy)-N-(2-(2-(8-hydroxy-2-oxo-1,2-dihydroquinolin-5-yl)ethylamino)ethyl)propanamide hydrochloride] |
| 631 nM | 0.94 | 3.98 nM | 5010 nM | Cl.O=C(CCOCCc1ccccc1F)N(CCNCCc1ccc(O)c2[nH]c(=O)ccc12)C1CCCCC1 [Example 73, N-Cyclohexyl-3-(2-fluorophenethoxy)-N-(2-(2-(8-hydroxy-2-oxo-1,2-dihydroquinolin-5-yl)ethylamino)ethyl)propanamide hydrochloride] |
|  | 0.91 | 39.8 nM |  | C[C@H](CNCCC(=O)N(CCNCCc1ccc(O)c2[nH]c(=O)ccc12)C1CCCCCC1)c1ccccc1 [Example 9, (S)—N-Cycloheptyl-N-(2-(2-(8-hydroxy-2-oxo-1,2-dihydroquinolin-5-yl)ethylamino)ethyl)-3-(2-phenylpropylamino)propanamide bis(trifluoroacetate)] |
| 39.8 nM | 0.86 | 2.51 nM | 79.4 nM | O=C1COc2c(CCNCCN(C(=O)CCNCCc3ccccc3Cl)C3CCCCC3)ccc(O)c2N1 [Example 28, 3-(2-Chlorophenethylamino)-N-cyclohexyl-N-(2-(2-(5-hydroxy-3-oxo-3,4-dihydro-2H-benzo[b][1,4]oxazin-8-yl)ethylamino)ethyl)propanamide bis(trifluoroacetate)] |
| 316 nM | 0.67 | 50.1 nM | 126 nM | O=C(CCNCCc1cccc(-c2ccccc2)c1)N(CCNCCc1ccc(O)c2[nH]c(=O)ccc12)C1CCCCCC1 [Example 12, 3-(2-(Biphenyl-3-yl)ethylamino)-N-cycloheptyl-N-(2-(2-(8-hydroxy-2-oxo-1,2-dihydroquinolin-5-yl)ethylamino)ethyl)propanamide bis(trifluoroacetate)] |
|  | 0.9 | 398 nM |  | CCCCN(CCNCCc1ccc(O)c2[nH]c(=O)ccc12)C(=O)CCOCCc1ccccc1 [Example 1, N-Butyl-N-(2-(2-(8-hydroxy-2-oxo-1,2-dihydroquinolin-5-yl)ethylamino)ethyl)-3-phenethoxypropanamide hydrochloride] |
| 794 nM | 1.01 | 20 nM |  | O=C(CCOCCc1cc(F)cc(F)c1)N(CCNCCc1ccc(O)c2[nH]c(=O)ccc12)C1CCCCC1 [Example 78, N-Cyclohexyl-3-(3,5-difluorophenethoxy)-N-(2-(2-(8-hydroxy-2-oxo-1,2-dihydroquinolin-5-yl)ethylamino)ethyl)propanamide trifluoroacetate] |

| Compound | IC50 [1] | β2 Int Act [2] | EC50 [2] | IC50 [3] |
| --- | --- | --- | --- | --- |
| O=C1Cc2c(CCNCCN(C(=O)CCNCCc3cccc(F)c3)C3CCCCC3)ccc(O)c2N1 [Example 20, N-Cyclohexyl-3-(3-fluorophenethylamino)-N-(2-(2-(7-hydroxy-2-oxoindolin-4-yl)ethylamino)ethyl)propanamide dihydrobromide] | 158 nM | 0.78 | 7.94 nM | 398 nM |

From patent US20100056508A1, “AMINE DERIVATIVES AND THEIR USE IN BETA-2-ADRENORECEPTOR MEDIATED DISEASES” (ASTRAZENECA AB, priority 2006, published 2010)
